In US20240208992A1, “MACROCYCLES AS CFTR MODULATORS” (Idorsia Pharmaceuticals Ltd, priority 2021, published 2024):

Biological target: human F508del-CFTR (Homo sapiens, UniProt P13569, DEL508-508)
Test: F508del-CFTR cell surface expression (corrector activity), DiscoveRx ß-galactosidase complementation chemiluminescence assay in recombinant U2OS cell line;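 note: U2OS cells co-expressing ProLink-tagged F508del-CFTR and a membrane-anchored enzyme acceptor, where more surface CFTR restores β-galactosidase activity measured by chemiluminescence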
Conditions: for EC50: EC50, F508del-CFTR cell surface expression, U2OS cells, 16h compound incubation, geomean values; for Emax: U2OS, in relation to Emax of corrector lumacaftor (=100%), arithmetic mean values

Chain of human F508del-CFTR (P13569 with tags, fused parts or gaps DEL508-508): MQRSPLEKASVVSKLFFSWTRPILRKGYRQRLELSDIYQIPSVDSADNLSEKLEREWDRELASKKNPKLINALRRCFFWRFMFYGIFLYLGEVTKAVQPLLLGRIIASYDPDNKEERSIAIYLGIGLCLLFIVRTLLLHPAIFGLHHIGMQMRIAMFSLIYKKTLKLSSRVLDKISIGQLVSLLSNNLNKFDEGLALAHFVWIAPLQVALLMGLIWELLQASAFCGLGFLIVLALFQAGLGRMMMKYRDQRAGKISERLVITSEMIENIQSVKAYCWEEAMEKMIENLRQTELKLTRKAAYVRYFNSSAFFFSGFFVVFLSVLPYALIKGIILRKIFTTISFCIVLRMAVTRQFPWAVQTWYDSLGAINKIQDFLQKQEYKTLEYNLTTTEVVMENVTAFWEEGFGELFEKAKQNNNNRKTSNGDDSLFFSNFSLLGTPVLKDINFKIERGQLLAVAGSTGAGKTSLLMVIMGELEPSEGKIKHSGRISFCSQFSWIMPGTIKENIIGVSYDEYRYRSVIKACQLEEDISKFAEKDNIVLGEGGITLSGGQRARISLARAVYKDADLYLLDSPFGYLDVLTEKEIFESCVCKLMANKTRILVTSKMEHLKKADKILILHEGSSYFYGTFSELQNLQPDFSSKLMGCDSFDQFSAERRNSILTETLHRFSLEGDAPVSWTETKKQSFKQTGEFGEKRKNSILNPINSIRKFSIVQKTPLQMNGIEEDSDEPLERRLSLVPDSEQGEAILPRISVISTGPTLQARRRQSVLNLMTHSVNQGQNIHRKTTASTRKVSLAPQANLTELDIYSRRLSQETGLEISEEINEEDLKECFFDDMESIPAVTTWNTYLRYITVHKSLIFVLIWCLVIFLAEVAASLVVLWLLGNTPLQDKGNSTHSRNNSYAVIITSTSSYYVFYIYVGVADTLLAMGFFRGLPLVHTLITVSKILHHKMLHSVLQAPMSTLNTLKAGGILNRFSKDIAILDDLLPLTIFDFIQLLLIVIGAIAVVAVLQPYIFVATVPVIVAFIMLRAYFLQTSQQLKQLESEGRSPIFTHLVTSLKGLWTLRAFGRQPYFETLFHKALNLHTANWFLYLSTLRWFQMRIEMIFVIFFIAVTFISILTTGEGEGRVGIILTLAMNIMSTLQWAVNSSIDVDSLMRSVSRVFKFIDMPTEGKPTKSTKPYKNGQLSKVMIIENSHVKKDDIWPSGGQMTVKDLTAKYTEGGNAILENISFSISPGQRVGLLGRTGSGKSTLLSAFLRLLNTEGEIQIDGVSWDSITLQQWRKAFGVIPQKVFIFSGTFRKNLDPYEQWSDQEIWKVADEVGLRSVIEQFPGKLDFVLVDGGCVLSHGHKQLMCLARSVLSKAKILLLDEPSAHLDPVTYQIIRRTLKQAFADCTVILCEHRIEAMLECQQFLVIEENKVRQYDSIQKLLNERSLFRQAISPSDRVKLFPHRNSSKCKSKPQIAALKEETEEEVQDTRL

| SMILES | EC50 [nM] | Emax [%] |
| --- | --- | --- |
| CCN1C(=O)C[C@@H](C(=O)NCCc2nc(C3CC3)no2)NC(=O)c2c(cnc3ccccc23)OC[C@@H](Cc2ccccc2)NC(=O)[C@H]2CCCCN2C(=O)[C@@H]1CC(C)C [Example 646, (9S,13S,19aR,22R)-22-benzyl-N-(2-(3-cyclopropyl-1,2,4-oxadiazol-5-yl)ethyl)-12-ethyl-13-isobutyl-7,11,14,20-tetraoxo-7,8,9,10,11,12,13,14,17,18,19,19a,20,21,22,23-hexadecahydro-16H-pyrido[2′,1′:6,7][1]oxa[4,7,10,14]tetraazacycloheptadecino[17,16-c]quinoline-9-carboxamide] | 158 | 201 |
| COc1cccc(CCNC(=O)[C@@H]2CC(=O)N(C)[C@@H](CC(C)C)C(=O)N(C)CC(=O)N[C@H](Cc3ccccc3)COc3cnc(OC)cc3C(=O)N2)c1 [Example 647, (3R,9S,13S)-3-benzyl-9-isobutyl-17-methoxy-N-(3-methoxyphenethyl)-7,10-dimethyl-5,8,11,15-tetraoxo-2,3,4,5,6,7,8,9,10,11,12,13,14,15-tetradecahydropyrido[4,3-p][1]oxa[4,7,10,14]tetraazacycloheptadecine-13-carboxamide] | 820 | 182 |
| COc1cccc(CCNC(=O)[C@@H]2CC(=O)N(C)[C@@H](CC(C)C)C(=O)N(C)C3(CC3)C(=O)N[C@H](Cc3ccccc3)COc3cnc(OC)cc3C(=O)N2)c1 [Example 650, (3′R,9′S,13′S)-3′-benzyl-9′-isobutyl-17′-methoxy-N-(3-methoxyphenethyl)-7′,10′-dimethyl-5′,8′,11′,15′-tetraoxo-2′,3′,4′,5′,8′,9′,10′,11′,12′,13′,14′,15′-dodecahydro-7′H-spiro[cyclopropane-1,6′-pyrido[4,3-p][1]oxa[4,7,10,14]tetraazacycloheptadecine]-13′-carboxamide] | 596 | 214 |
| CC(C)C[C@H]1C(=O)N2CCCC[C@@H]2C(=O)N[C@H](Cc2ccccc2)COc2cccc(F)c2C(=O)N[C@H](C(=O)NCCc2ccc(-n3nccn3)cc2)CC(=O)N1C [Example 651, (7S,11S,20R,22aR)-N-(4-(2H-1,2,3-triazol-2-yl)phenethyl)-20-benzyl-14-fluoro-7-isobutyl-8-methyl-6,9,13,22-tetraoxo-1,3,4,6,7,8,9,10,11,12,13,19,20,21,22,22a-hexadecahydro-2H-benzo[p]pyrido[2,1-f][1]oxa[4,7,10,14]tetraazacycloheptadecine-11-carboxamide] | 375 | 127 |
| [2H]C1([2H])Oc2ccc3c(c2O1)C(=O)N[C@H](C(=O)NCCc1ccc(-n2nccn2)cc1)CC(=O)N(C)[C@@H](CC(C)C)C(=O)N1CCCC[C@@H]1C(=O)N[C@H](Cc1ccccc1)CO3 [Example 653, (8S,12S,18aR,21R)-N-(4-(2H-1,2,3-triazol-2-yl)phenethyl)-21-benzyl-12-isobutyl-11-methyl-6,10,13,19-tetraoxo-6,7,8,9,10,11,12,13,16,17,18,18a,19,20,21,22-hexadecahydro-15H-[1,3]dioxolo[4′,5′:5,6]benzo[1,2-p]pyrido[2,1-f][1]oxa[4,7,10,14]tetraazacycloheptadecine-4,4-d2-8-carboxamide] | 332 | 140 |

The remaining lines, values ahead:

| EC50 [nM] | Emax [%] | SMILES |
| --- | --- | --- |
| 220 | 270 | CC(C)C[C@H]1C(=O)N2CCOC[C@@H]2C(=O)N[C@H](Cc2ccccc2)COc2cnc3ccc(F)cc3c2C(=O)N[C@H](C(=O)NCCc2cc(C3CC3)on2)CC(=O)N1C [Example 643, (9S,13S,19aR,22R)-22-benzyl-N-(2-(5-cyclopropylisoxazol-3-yl)ethyl)-5-fluoro-13-isobutyl-12-methyl-7,11,14,20-tetraoxo-7,8,9,10,11,12,13,14,16,17,19,19a,20,21,22,23-hexadecahydro-[1,4]oxazino[3′,4′:6,7][1]oxa[4,7,10,14]tetraazacycloheptadecino[17,16-c]quinoline-9-carboxamide] |
| 277 | 270 | CC(C)C[C@H]1C(=O)N2CCOC[C@@H]2C(=O)N[C@H](Cc2ccccc2)COc2cnc3ccc(F)cc3c2C(=O)N[C@H](C(=O)NCCc2cc(C3CC3)no2)CC(=O)N1C [Example 644, (9S,13S,19aR,22R)-22-benzyl-N-(2-(3-cyclopropylisoxazol-5-yl)ethyl)-5-fluoro-13-isobutyl-12-methyl-7,11,14,20-tetraoxo-7,8,9,10,11,12,13,14,16,17,19,19a,20,21,22,23-hexadecahydro-[1,4]oxazino[3′,4′:6,7][1]oxa[4,7,10,14]tetraazacycloheptadecino[17,16-c]quinoline-9-carboxamide] |
| 289 | 211 | CC(C)C[C@H]1C(=O)N2CCOC[C@@H]2C(=O)N[C@H](Cc2ccccc2)COc2cnc3ccc(F)cc3c2C(=O)N[C@H](C(=O)NCCc2nc(C3CC3)no2)CC(=O)N1C [Example 645, (9S,13S,19aR,22R)-22-benzyl-N-(2-(3-cyclopropyl-1,2,4-oxadiazol-5-yl)ethyl)-5-fluoro-13-isobutyl-12-methyl-7,11,14,20-tetraoxo-7,8,9,10,11,12,13,14,16,17,19,19a,20,21,22,23-hexadecahydro-[1,4]oxazino[3′,4′:6,7][1]oxa[4,7,10,14]tetraazacycloheptadecino[17,16-c]quinoline-9-carboxamide] |
| 748 | 159 | COc1cc2c(cn1)OC[C@@H](Cc1ccccc1)NC(=O)C1(CC1)N(C)C(=O)[C@H](CC(C)C)N(C)C(=O)C[C@@H](C(=O)NCCc1cc(C3CC3)no1)NC2=O [Example 648, (3′R,9′S,13′S)-3′-benzyl-N-(2-(3-cyclopropylisoxazol-5-yl)ethyl)-9′-isobutyl-17′-methoxy-7′,10′-dimethyl-5′,8′,11′,15′-tetraoxo-2′,3′,4′,5′,8′,9′,10′,11′,12′,13′,14′,15′-dodecahydro-7′H-spiro[cyclopropane-1,6′-pyrido[4,3-p][1]oxa[4,7,10,14]tetraazacycloheptadecine]-13′-carboxamide] |
| 908 | 149 | COc1cc2c(cn1)OC[C@@H](Cc1ccccc1)NC(=O)C1(CC1)N(C)C(=O)[C@H](CC(C)C)N(C)C(=O)C[C@@H](C(=O)NCCc1noc(C3CC3)n1)NC2=O [Example 649, (3′R,9′S,13′S)-3′-benzyl-N-(2-(5-cyclopropyl-1,2,4-oxadiazol-3-yl)ethyl)-9′-isobutyl-17′-methoxy-7′,10′-dimethyl-5′,8′,11′,15′-tetraoxo-2′,3′,4′,5′,8′,9′,10′,11′,12′,13′,14′,15′-dodecahydro-7′H-spiro[cyclopropane-1,6′-pyrido[4,3-p][1]oxa[4,7,10,14]tetraazacycloheptadecine]-13′-carboxamide] |
| 290 | 330 | Cc1cc(CCNC(=O)[C@@H]2CC(=O)N(C)[C@@H](CC(C)C)C(=O)N(C)C3(CC3)C(=O)N[C@H](Cc3ccccc3)COc3ccc4ccccc4c3C(=O)N2)on1 [Example 654, (3′S,7′S,13′R)-13′-benzyl-7′-isobutyl-6′,9′-dimethyl-N-(2-(3-methylisoxazol-5-yl)ethyl)-1′,5′,8′,11′-tetraoxo-2′,3′,4′,5′,6′,7′,8′,9′,11′,12′,13′,14′-dodecahydro-1′H-spiro[cyclopropane-1,10′-naphtho[1,2-p][1]oxa[4,7,10,14]tetraazacycloheptadecine]-3′-carboxamide] |
